# Measured values reported in ChEMBL document CHEMBL1201862, “PubChem BioAssay data set” (2004).
#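 Grown in 96-well plates, cells were treated for 48 hours with each compound at five concentrations. Insufficient inhibition: endpoint recorded as highest concentration tested. GI50 marks 50% less growth.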 Activity calls are given as the source filed them. Cut-off read from the data, not from the text of the source: active = GI50 up to about 1.1 µM and inactive = higher.
# Assays:
# Test in all cases: growth of human tumour cells (NCI), 48 h
# SW-620 = system: SW-620
# SR = system: SR
# COLO 205 = system: COLO 205
# MDA-N = system: MDA-N
# NCI-H23 = system: NCI-H23
# SK-MEL-2 = system: SK-MEL-2
# MCF7 = system: MCF7
# SNB-75 = system: SNB-75
# U-251 = system: U-251
# UACC-257 = system: UACC-257
# ACHN = system: ACHN
# NCI-H460 = system: NCI-H460
# K562 = system: K562
# CAKI-1 = system: CAKI-1
# SK-MEL-5 = system: SK-MEL-5
# A498 = system: A498
# MOLT-4 = system: MOLT-4
# A549 = system: A549
# EKVX = system: EKVX
SMILES,GI50 (SW-620),GI50 (SR),GI50 (COLO 205),GI50 (MDA-N),GI50 (NCI-H23),GI50 (SK-MEL-2),GI50 (MCF7),GI50 (SNB-75),GI50 (U-251),GI50 (UACC-257),GI50 (ACHN),GI50 (NCI-H460),GI50 (K562),GI50 (CAKI-1),GI50 (SK-MEL-5),GI50 (A498),GI50 (MOLT-4),GI50 (A549),GI50 (EKVX)
Cc1c([N+](=O)[O-])ccc2c(NCCCN(C)C)ccnc12,17.8 µM (inactive),29.2 µM (inactive),12.2 µM (inactive),15 µM (inactive),19 µM (inactive),17.1 µM (inactive),15.9 µM (inactive),25.4 µM (inactive),27.4 µM (inactive),17.2 µM (inactive),30.8 µM (inactive),16.3 µM (inactive),48.6 µM (inactive),35.6 µM (inactive),16 µM (inactive),34 µM (inactive),> 100 µM (inactive),19.8 µM (inactive),–
CC(C)=CCC[C@](C)(O)[C@H]1CC[C@]2(C)[C@@H]1[C@H](O)C[C@@H]1[C@@]3(C)CC[C@H](O[C@@H]4O[C@H](CO)[C@@H](O)[C@H](O)[C@H]4O)C(C)(C)[C@@H]3CC[C@]12C [GINSENOSIDE RH2],19.5 µM (inactive),14 µM (inactive),19.5 µM (inactive),19.8 µM (inactive),20.6 µM (inactive),15.9 µM (inactive),17.3 µM (inactive),19.1 µM (inactive),17.7 µM (inactive),20.9 µM (inactive),17.8 µM (inactive),16.6 µM (inactive),19.8 µM (inactive),18.7 µM (inactive),18.1 µM (inactive),19.8 µM (inactive),17.1 µM (inactive),18.8 µM (inactive),22.7 µM (inactive)
COc1cc2c(c(OC)c1OC)-c1ccc(SC)c(=O)cc1[C@@H](OC(=O)c1ccncc1)CC2,< 0.01 µM (active),< 0.0145 µM (active),< 0.01 µM (active),< 0.01 µM (active),< 0.01 µM (active),0.407 µM (active),< 0.01 µM (active),< 0.01 µM (active),< 0.01 µM (active),< 0.01 µM (active),< 0.01 µM (active),< 0.01 µM (active),< 0.01 µM (active),< 0.01 µM (active),< 0.01 µM (active),< 0.0116 µM (active),< 0.01 µM (active),< 0.01 µM (active),–
CCC1=C(CC2NCCc3cc(OC)c(OC)cc32)CC2c3ccccc3CCN2C1 (stereo not drawn),13.8 µM (inactive),10.1 µM (inactive),10.2 µM (inactive),14 µM (inactive),–,15.8 µM (inactive),18.7 µM (inactive),19.8 µM (inactive),13.7 µM (inactive),18.1 µM (inactive),31.5 µM (inactive),12.6 µM (inactive),10.1 µM (inactive),22.4 µM (inactive),14.8 µM (inactive),13.2 µM (inactive),15.3 µM (inactive),26.4 µM (inactive),22.2 µM (inactive)
CCOC(=O)c1cc(C2(O)CCN(CC(C)CC)C2=O)c(-c2cc(C)no2)[nH]1 (stereo not drawn),> 100 µM (inactive),> 100 µM (inactive),> 100 µM (inactive),> 100 µM (inactive),> 100 µM (inactive),> 100 µM (inactive),> 100 µM (inactive),> 100 µM (inactive),> 100 µM (inactive),> 100 µM (inactive),–,> 100 µM (inactive),> 100 µM (inactive),> 100 µM (inactive),> 100 µM (inactive),> 100 µM (inactive),> 100 µM (inactive),> 100 µM (inactive),> 100 µM (inactive)
O=S(=O)(c1ccc2ccccc2c1)N1CCN(S(=O)(=O)c2ccc3ccccc3c2)CC1,> 100 µM (inactive),> 100 µM (inactive),> 100 µM (inactive),> 100 µM (inactive),> 100 µM (inactive),> 100 µM (inactive),> 100 µM (inactive),18.9 µM (inactive),> 100 µM (inactive),> 100 µM (inactive),> 100 µM (inactive),> 100 µM (inactive),> 100 µM (inactive),> 100 µM (inactive),> 100 µM (inactive),> 100 µM (inactive),–,> 100 µM (inactive),> 100 µM (inactive)
C/C=N\n1c(C)c(C#N)c(C#N)c1N,> 100 µM (inactive),> 100 µM (inactive),> 100 µM (inactive),> 100 µM (inactive),> 100 µM (inactive),> 100 µM (inactive),> 100 µM (inactive),> 100 µM (inactive),> 100 µM (inactive),> 100 µM (inactive),> 100 µM (inactive),–,> 100 µM (inactive),> 100 µM (inactive),> 100 µM (inactive),> 100 µM (inactive),> 100 µM (inactive),34.5 µM (inactive),> 100 µM (inactive)
COC(=O)C1CCN(C(=O)OC(C)(C)C)CC1,> 100 µM (inactive),> 100 µM (inactive),> 100 µM (inactive),> 100 µM (inactive),> 100 µM (inactive),> 100 µM (inactive),> 100 µM (inactive),> 100 µM (inactive),> 100 µM (inactive),> 100 µM (inactive),> 100 µM (inactive),> 100 µM (inactive),–,> 100 µM (inactive),> 100 µM (inactive),> 100 µM (inactive),> 100 µM (inactive),> 100 µM (inactive),> 100 µM (inactive)
CN1CCc2c(sc3ncn(Nc4ccc(F)cc4)c(=N)c23)C1,> 100 µM (inactive),> 100 µM (inactive),–,> 100 µM (inactive),> 100 µM (inactive),> 100 µM (inactive),> 100 µM (inactive),> 100 µM (inactive),> 100 µM (inactive),> 100 µM (inactive),> 100 µM (inactive),> 100 µM (inactive),> 100 µM (inactive),> 100 µM (inactive),> 100 µM (inactive),> 100 µM (inactive),> 100 µM (inactive),> 100 µM (inactive),> 100 µM (inactive)
CCOc1ccc(NC(=O)C(=O)Nn2c(N)nnc2N)cc1,> 100 µM (inactive),> 100 µM (inactive),–,> 100 µM (inactive),> 100 µM (inactive),> 100 µM (inactive),> 100 µM (inactive),> 100 µM (inactive),> 100 µM (inactive),> 100 µM (inactive),> 100 µM (inactive),> 100 µM (inactive),> 100 µM (inactive),> 100 µM (inactive),> 100 µM (inactive),> 100 µM (inactive),> 100 µM (inactive),> 100 µM (inactive),> 100 µM (inactive)
COc1ccc(N2C(=O)C3ON(Cc4ccc(CC(N)=O)cc4)C(c4c5ccccc5c(C)c5ccccc45)C3C2=O)cc1 (stereo not drawn),25.9 µM (inactive),12.6 µM (inactive),–,22.3 µM (inactive),32.7 µM (inactive),20.1 µM (inactive),17.7 µM (inactive),14.4 µM (inactive),22.8 µM (inactive),17.6 µM (inactive),21.5 µM (inactive),13.6 µM (inactive),3.27 µM (inactive),20.7 µM (inactive),–,46.1 µM (inactive),2.2 µM (inactive),29.8 µM (inactive),20.9 µM (inactive)
c1ccc([P+](c2ccccc2)(c2ccccc2)c2ccc([P+](c3ccccc3)(c3ccccc3)c3ccccc3)cc2)cc1,> 100 µM (inactive),0.0815 µM (active),20.1 µM (inactive),56.1 µM (inactive),39.9 µM (inactive),34.3 µM (inactive),32.4 µM (inactive),37.6 µM (inactive),34.2 µM (inactive),29.2 µM (inactive),> 100 µM (inactive),43.5 µM (inactive),28.4 µM (inactive),> 100 µM (inactive),41 µM (inactive),> 100 µM (inactive),24.7 µM (inactive),64.9 µM (inactive),–
O=c1[nH]nc(Cc2ccccc2)n1/N=C\CC/C=N\n1c(Cc2ccccc2)n[nH]c1=O,36.3 µM (inactive),9.77 µM (inactive),> 100 µM (inactive),44.7 µM (inactive),23 µM (inactive),31.3 µM (inactive),30 µM (inactive),24.4 µM (inactive),34 µM (inactive),> 100 µM (inactive),49.9 µM (inactive),–,36.2 µM (inactive),> 100 µM (inactive),29.2 µM (inactive),> 100 µM (inactive),31.1 µM (inactive),> 100 µM (inactive),36.6 µM (inactive)
COc1cc(S(=O)(=O)Nc2ccc(-c3csc(N4C(=O)C(Cl)C4c4ccccc4)n3)cc2)ccc1Cl (stereo not drawn),50.4 µM (inactive),3.06 µM (inactive),37.9 µM (inactive),37.5 µM (inactive),25.6 µM (inactive),> 100 µM (inactive),27.1 µM (inactive),22.8 µM (inactive),–,8.45 µM (inactive),60 µM (inactive),< 0.01 µM (active),32.2 µM (inactive),> 100 µM (inactive),25.2 µM (inactive),25.9 µM (inactive),27 µM (inactive),> 100 µM (inactive),31.9 µM (inactive)
O=c1oc2c/c(=C\c3ccccc3)c(=O)c3cccc1c3-2,25.1 µM (inactive),28.8 µM (inactive),37.3 µM (inactive),20.8 µM (inactive),36.7 µM (inactive),–,> 10 µM (inactive),41.4 µM (inactive),18.6 µM (inactive),31.7 µM (inactive),> 100 µM (inactive),74.5 µM (inactive),–,24.1 µM (inactive),> 10 µM (inactive),> 100 µM (inactive),–,> 100 µM (inactive),75.3 µM (inactive)
